Test results taken from US6387909B1, “Thienopyranecarboxamide derivatives” (Recordati S.A. Chemical and Pharmaceutical Company, priority 1999, dated 2002).
Read-outs that look alike come from different tables or passages of the source.

Experiments:
diastolic blood pressure [1] = settings: dog, i.v.; data from Leonardi et al. 1997; cited from earlier work
[2] = test system: prostatic urethral contractions induced by noradrenaline; settings: dog, i.v.; data from Leonardi et al. 1997; cited from earlier work
[3] = biological target: T1, recombinant α1d-adrenoceptor (Homo sapiens, UniProt P25100); assay: Radioligand binding ([3H]prazosin) to cloned α1d adrenoceptor; settings: read-out: Affinity (Ki) α1d
T1 construct: expressed in transfected cells
T1 sequence (P25100 1-572): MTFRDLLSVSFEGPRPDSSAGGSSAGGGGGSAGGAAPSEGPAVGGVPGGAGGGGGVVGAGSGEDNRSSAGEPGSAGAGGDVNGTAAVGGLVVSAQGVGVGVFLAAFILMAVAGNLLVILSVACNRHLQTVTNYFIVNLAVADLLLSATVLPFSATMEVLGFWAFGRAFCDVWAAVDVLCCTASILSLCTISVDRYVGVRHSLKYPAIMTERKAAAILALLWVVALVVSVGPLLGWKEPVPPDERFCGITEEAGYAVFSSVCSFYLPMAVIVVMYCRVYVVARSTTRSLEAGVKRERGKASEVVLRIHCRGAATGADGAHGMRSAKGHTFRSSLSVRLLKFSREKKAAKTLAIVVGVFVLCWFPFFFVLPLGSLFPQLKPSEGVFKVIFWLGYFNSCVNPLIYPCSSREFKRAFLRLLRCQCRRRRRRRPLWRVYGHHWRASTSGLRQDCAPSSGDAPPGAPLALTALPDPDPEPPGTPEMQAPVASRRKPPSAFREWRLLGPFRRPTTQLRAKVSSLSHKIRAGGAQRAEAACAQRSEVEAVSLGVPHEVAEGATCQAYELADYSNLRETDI
Protocol: (§1) Determination of affinity for cloned subtypes of the α1-adrenoceptor was performed in membranes from cells transfected by electroporation with DNA expressing the genes encoding each α1-adrenoceptor subtype.
(§2) Non-specific binding was determined in the presence of 10 μM phentolamine. Incubation was stopped by addition of ice-cold Tris buffer and rapid filtration through Schleicher & Schuell GF52 filters that had been pretreated with 0.2%-polyethyleneimine.
(§3) Data were expressed as mean of Ki.

[4] = test system: prostatic urethral contractions induced by noradrenaline; assay: Urethral contractions induced by noradrenaline injection in anaesthetized dogs after intravenous administration; type: in vivo; settings: dog, i.v.
Protocol: (§4) The experiments were performed according to the method of Imagawa et al. (J. Pharmacol. Methods, 22:103-111, 1989), with substantial modifications, as follows: adult male beagle dogs, weighing 8-10 kg, were anaesthetized with pentobarbital sodium (30 mg/kg i.v. and 2 mg/kg/h i.v.), intubated and spontaneously ventilated with room air. In order to monitor systemic blood pressure (BP), a polyethylene (PE) catheter was introduced into the aortic arch through the left femoral artery. A collateral of the left femoral vein was cannulated for infusion of anaesthetic, and the right femoral vein was cannulated for administration of compounds. For intraarterial (i.a.) injection of noradrenaline (NA), a PE catheter was introduced into the lower portion of the abdominal aorta via the right external iliac artery. Through such procedure, NA was selectively distributed to the lower urinary tract. A paramedian vertical suprapubic incision extending from the base of the pelvis to the mid-abdominal region was made and the bladder and the prostate were exposed. The bladder was manually emptied with a syringe. Prostatic urethral pressure was monitored with a Mikro-tip catheter (5F) introduced into the bladder via the external urethral meatus, and withdrawn until the pressure transducer was positioned in the prostatic region of the urethra. A ligature was secured between the neck of the bladder and urethra to isolate the response of the latter and to avoid any interaction with the bladder. Another ligature was put around the Mikro-tip catheter at the external meatus, to secure the catheter itself.
(§5) After a stabilizing period following the surgical procedure (30 minutes), in which arterial and prostatic urethral pressures were continuously monitored as basal values, i.a. administration of NA was made at intervals of 20 minutes.
(§6) The NA doses were chosen to produce an increase of at least 100% in urethral pressure. The test compounds were administered intravenously in a cumulative manner with intervals of 15-20 minutes between administrations. […]

[5] = biological target: T2, recombinant α1b-adrenoceptor (Homo sapiens, UniProt P35368); assay: Radioligand binding ([3H]prazosin) to cloned α1b adrenoceptor; settings: read-out: Affinity (Ki) α1b
T2 construct: expressed in transfected cells
T2 sequence (P35368 1-520): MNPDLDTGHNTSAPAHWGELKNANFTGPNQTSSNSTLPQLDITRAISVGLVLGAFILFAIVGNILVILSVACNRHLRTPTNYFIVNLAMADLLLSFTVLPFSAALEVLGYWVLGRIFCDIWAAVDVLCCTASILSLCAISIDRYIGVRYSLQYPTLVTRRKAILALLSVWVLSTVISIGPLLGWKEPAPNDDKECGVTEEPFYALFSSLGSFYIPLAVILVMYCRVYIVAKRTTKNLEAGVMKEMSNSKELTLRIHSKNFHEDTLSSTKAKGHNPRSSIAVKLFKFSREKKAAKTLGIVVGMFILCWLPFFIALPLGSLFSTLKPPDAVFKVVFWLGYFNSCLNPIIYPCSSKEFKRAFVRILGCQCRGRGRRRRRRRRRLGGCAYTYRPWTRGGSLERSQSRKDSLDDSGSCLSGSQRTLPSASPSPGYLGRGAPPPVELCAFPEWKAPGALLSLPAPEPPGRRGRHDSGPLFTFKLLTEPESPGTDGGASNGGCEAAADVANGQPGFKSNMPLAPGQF
Protocol: as §1, §2, §3

diastolic blood pressure [6] = assay: Blood pressure in anaesthetized dogs after intravenous administration; type: in vivo; settings: dog, i.v.
Protocol: as §4, §5, §6

[7] = biological target: T3, recombinant α1a-adrenoceptor (Homo sapiens, UniProt P35348); assay: Radioligand binding ([3H]prazosin) to cloned α1a adrenoceptor; settings: read-out: Affinity (Ki) α1a
T3 construct: expressed in transfected cells
T3 sequence (P35348 1-466): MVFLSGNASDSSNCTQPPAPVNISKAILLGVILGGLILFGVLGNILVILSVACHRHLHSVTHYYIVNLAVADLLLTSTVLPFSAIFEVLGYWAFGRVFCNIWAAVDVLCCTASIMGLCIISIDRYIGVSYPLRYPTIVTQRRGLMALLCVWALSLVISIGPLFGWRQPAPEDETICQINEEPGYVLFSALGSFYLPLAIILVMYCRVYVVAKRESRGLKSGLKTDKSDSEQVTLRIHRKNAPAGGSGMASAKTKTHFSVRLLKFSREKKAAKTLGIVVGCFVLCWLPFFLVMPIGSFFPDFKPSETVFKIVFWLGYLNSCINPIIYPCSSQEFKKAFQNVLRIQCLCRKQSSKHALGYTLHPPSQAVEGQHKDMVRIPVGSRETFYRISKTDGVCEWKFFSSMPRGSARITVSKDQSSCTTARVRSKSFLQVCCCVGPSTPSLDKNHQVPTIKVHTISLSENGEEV
Protocol: as §1, §2, §3

[8] = biological target: T4, human 5-HT1A-serotoninergic receptor (Homo sapiens, UniProt P08908); assay: Radioligand binding ([3H]8-OH-DPAT) to cloned 5-HT1A receptor in HeLa cell membranes; settings: read-out: Affinity (Ki) 5-HT1A
T4 construct: expressed in transfected cells; host or cells: HeLa
T4 sequence (P08908 1-422): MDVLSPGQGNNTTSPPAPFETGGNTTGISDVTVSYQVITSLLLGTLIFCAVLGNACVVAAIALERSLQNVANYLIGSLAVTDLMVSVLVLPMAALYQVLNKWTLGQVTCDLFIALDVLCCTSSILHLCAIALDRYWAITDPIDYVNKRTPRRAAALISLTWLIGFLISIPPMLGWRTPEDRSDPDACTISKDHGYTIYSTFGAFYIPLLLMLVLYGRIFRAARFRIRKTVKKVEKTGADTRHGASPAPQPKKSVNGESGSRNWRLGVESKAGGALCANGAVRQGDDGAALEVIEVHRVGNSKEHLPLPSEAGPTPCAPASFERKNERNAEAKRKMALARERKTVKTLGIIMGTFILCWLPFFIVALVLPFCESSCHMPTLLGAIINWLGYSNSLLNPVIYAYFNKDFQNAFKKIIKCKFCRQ
Protocol: HeLa cells were grown as monolayers in Dulbecco's modified Eagle's medium (DMEM), supplemented with 10% fetal calf serum and gentamicin (100 μg/mL), at 37° C. in 5% CO2. The cells were detached from the growth flask at 95% confluence by a cell scraper and were lysed in a buffer containing ice cold 5 mM Tris, 5 mM EDTA (pH 7.4). The homogenates were centrifuged at 40,000×g for 20 minutes and the membranes were resuspended in a small volume of ice-cold buffer containing 5 mM Tris and 5 mM, EDTA (pH 7.4), and immediately frozen and stored at −70° C. until use.
Non-specific binding was determined in the presence of 10 μM 5-HT. Incubation was stopped by addition of ice-cold Tris buffer and rapid filtration through Schleicher & Schuell GF52 filters that had been pretreated with 0.2%-polyethyleneimine.
as §3

α1L adrenoceptor = biological target: T5, α1L adrenoceptor (Oryctolagus cuniculus, UniProt O02824); assay: Functional antagonism of noradrenaline-induced contractions of rabbit aorta pretreated with chloroethylclonidine; type: biochemical; settings: NA-induced contractions
T5 sequence (O02824 1-466): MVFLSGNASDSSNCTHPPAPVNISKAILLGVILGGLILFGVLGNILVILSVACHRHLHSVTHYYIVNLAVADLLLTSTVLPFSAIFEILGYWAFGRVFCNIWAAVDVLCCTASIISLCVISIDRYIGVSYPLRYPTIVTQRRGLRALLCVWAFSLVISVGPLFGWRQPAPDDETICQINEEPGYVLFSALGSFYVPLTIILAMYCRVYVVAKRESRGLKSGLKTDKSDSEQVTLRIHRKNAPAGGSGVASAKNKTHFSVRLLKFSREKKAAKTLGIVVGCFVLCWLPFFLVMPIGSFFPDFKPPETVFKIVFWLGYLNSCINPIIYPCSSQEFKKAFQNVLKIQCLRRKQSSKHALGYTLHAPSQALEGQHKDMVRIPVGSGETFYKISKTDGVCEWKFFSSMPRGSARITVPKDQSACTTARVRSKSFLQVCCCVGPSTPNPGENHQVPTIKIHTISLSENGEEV
Protocol: Adult male New Zealand rabbits were sacrificed by cervical dislocation. The aorta was removed, placed in Krebs-Henseleit buffer and dissected free of adhering tissue. […] Desmethylimipramine (0.1 μM) and corticosterone (1 μM) to block neuronal and extraneuronal uptake of NA, (±)-propranol (1 μM) to block β adrenoceptors and yohimbine (0.1 μM) to block α2 adrenoceptors were added to the buffer.
The preparations were equilibrated for 60 minutes and then primed every 30 minutes with 10 μM NA for three times. The aortic rings were then incubated with the alkylating agent chloroethylclonidine (50 μM) for 30 minutes and then washed extensively three times, over a 30 min period before constructing the NA-concentration/response curve. Following washing, tissue was re-equilibrated for 45 min. Test drug was added and after 30 minutes, a second cumulative-NA-concentration/response curve was constructed. Each antagonist concentration was tested using 2-3 aortic rings from different rabbits.
Dose ratios (i.e., the ratio between the concentrations of noradrenaline required to produce half-maximal response in the presence and in the absence of the test antagonist) were calculated at each concentration of the compounds. The logarithm of these dose ratio −1 was plotted against the logarithm of the compound concentrations (Schild plot) to evaluate the affinity constant Kb.
When only one or two concentrations of the test compounds were utilised, the apparent Kb value was calculated using the formula: Kb=[B]/(DOSE RATIO-1), where B is the antagonist concentration.

## COc1ccccc1N1CCN(CCCNC(=O)c2cccc3c(=O)c(C)c(-c4ccccc4)oc23)CC1 [Compound A]
Diastolic blood pressure [1]
  DBP ED25 (dose inducing a 25% decrease in diastolic blood pressure): 0.243 mg/kg
[2]
  UC ID50 NA (dose inhibiting by 50% the urethral contractions induced by noradrenaline): 0.0024 mg/kg

## COc1ccc(Cl)cc1N1CCN(CCCNC(=O)c2csc3c(=O)cc(-c4ccccc4)oc23)CC1 [Example 1, N-{3-[4-(5-Chloro-2-methoxyphenyl)1-piperazinyl]propyl}-7-oxo-5-phenyl-7H-thieno[3,2-b]Pyran-3-carboxamide]
[3]
  Ki: 4.12 nM
[4]
  UC ID50 NA (dose inhibiting by 50% the urethral contractions induced by noradrenaline): 0.0053 mg/kg
[5]
  Ki: 2.53 nM
Diastolic blood pressure [6]
  DBP ED25 (dose inducing a 25% decrease in diastolic blood pressure): 0.28 mg/kg
[7]
  Ki: 0.58 nM

## COc1ccccc1N1CCN(CCCNC(=O)c2csc3c(=O)cc(C(F)(F)F)oc23)CC1 [Example 4, N-{3-[4-(2-Methoxyphenyl)-1-piperazinyl]propyl}-7-oxo-5-trifluoromethyl-7H-thieno[3,2b]pyran-3-carboxamide]
[3]
  Ki: 3.6 nM
[8]
  Ki: 26.2 nM
[5]
  Ki: 23.2 nM
α1L adrenoceptor
  pKb, functional affinity for the α1L adrenoceptor subtype: 7.92
[7]
  Ki: 0.6 nM

## COc1ccc(OCC(F)(F)F)cc1N1CCN(CCCNC(=O)c2csc3c(=O)cc(-c4ccccc4)oc23)CC1 [Example 6, N-{3-[4-[2-Methoxy-5-(2,2,2-trifluoroethoxy)phenyl]-1-piperazinyl]propyl}-7-oxo-5-phenyl7H-thieno[3,2-b]pyran-3-carboxamide]
[3]
  Ki: 48.2 nM
[8]
  Ki: 1080 nM
[5]
  Ki: 39.3 nM
[7]
  Ki: 3.19 nM

## O=C(NCCCN1CCN(c2ccc(F)cc2OCC(F)(F)F)CC1)c1csc2c(=O)cc(-c3ccccc3)oc12 [Example 7, N-{3-[4-[4-Fluoro-2-(2,2,2-trifluoroethoxy)phenyl]-1-piperazinyl]propyl}-7-oxo-5-phenyl-7H-thieno[3,2-b]pyran-3-carboxamide]
[3]
  Ki: 2.45 nM
[8]
  Ki: 88.5 nM
[5]
  Ki: 3.47 nM
α1L adrenoceptor
  pKb, functional affinity for the α1L adrenoceptor subtype: 8.66
[7]
  Ki: 0.17 nM
